Measured values from patent US20260109732A1, “LIPID AMINES” (ModernaTX, Inc., priority 2021, published 2026).
Where a name gives a salt, the structure may show the parent alone.

Columns and labels:
[1] = Diameter and PDI from DLS measurements of mRNA nanoparticles with lipid amines; format: physicochemical
Method in brief: (§1)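 Ionizable lipid nanoparticles (IL1:DSPC:cholesterol:PEG-DMG-2K) formed by vortex mixing at pH 4, loaded with luciferase or CFTR mRNA at N:P 4.93, neutralized with TRIS pH 8.12, then modified with lipid amine SA50 at pH 7.5. Particle diameter and PDI read by DLS; mRNA encapsulation by Ribogreen assay.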

[2] = Encapsulation of mRNA nanoparticles with lipid amines using Ribogreen assay; format: physicochemical
Method in brief: as §1

HeLa cells [3] = experiment: Luciferase Protein Expression Assay in HeLa Cells; format: cell-based, Human; details: LNPs encapsulating Luciferase mRNA, 25 ng per well, N=4 wells; 5 h serum-free then 24 h; ONE-Glo
Method in brief: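 HeLa cells received LNPs carrying luciferase mRNA (25 ng per well) or PBS in serum-free MEM for 5 h, then complete MEM for a further 24 h. Luciferase then read by ONE-Glo luminescence after lysis and reported as average RLU of 4 replicate wells.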

HeLa cells [4] = experiment: CFTR Protein Expression Assay in HeLa Cells; format: cell-based, Human; details: LNPs encapsulating CFTR mRNA, N=4 wells; 5 h serum-free then 24 h; immunofluorescence vs PBS control
Method in brief: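 HeLa cells dosed with CFTR mRNA LNPs (70 mM NaCl final buffer matrix) in serum-free MEM for 5 h, then complete MEM for 24 h. Fixed cells immunostained with anti-CFTR monoclonal and Alexa 488 secondary, imaged confocally; CFTR intensity per cell expressed as fold-change versus PBS buffer control, N=4 wells.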

[5] = CFTR mRNA nanoparticle with lipid amine
[6] = Luciferase mRNA nanoparticle modified with lipid amine

Compound	Diameter (nm) [1, 5] [nm]	PDI [1, 5]	Diameter (nm) [1, 6] [nm]	PDI [1, 6]	% Encapsulation (Ribogreen) [2, 5] [%]	% Encapsulation (Ribogreen) [2, 6] [%]	Average Relative Light Units ± Standard Deviation (HeLa cells [3]) [Relative Light Units]	Average fold-change in CFTR signal intensity per cell compared to buffer control ± standard deviation (HeLa cells [4]) [fold-change]
CC(C)CCC[C@@H](C)[C@H]1CC[C@H]2[C@@H]3CC=C4C[C@@H](OC(=O)N(CCCN)CCCCCCCCCCN)CC[C@]4(C)[C@H]3CC[C@]12C [SA95, (3S,8S,9S,10R,13R,14S,17R)-10,13-Dimethyl-17-((R)-6-methylheptan-2-yl)-2,3,4,7,8,9,10,11,12,13,14,15,16,17-tetradecahydro-1H-cyclopenta[a]phenanthren-3-yl (10-aminodecyl)(3-aminopropyl)carbamate dihydrochloride]	83.6	0.14	75	0.20	99.3	99.7	22952.2 ± 5937.7	4.2 ± 0.8
CC[C@H](CC[C@@H](C)[C@H]1CC[C@H]2[C@@H]3CC=C4C[C@@H](OC(=O)CCC(=O)N(CCC(C)(C)N)CCC(C)(C)N)CC[C@]4(C)[C@H]3CC[C@]12C)C(C)C [SA170, (3S,8S,9S,10R,13R,14S,17R)-17-((2R,5R)-5-ethyl-6-methylheptan-2-yl)-10,13-dimethyl-2,3,4,7,8,9,10,11,12,13,14,15,16,17-tetradecahydro-1H-cyclopenta[a]phenanthren-3-yl 4-(bis(3-amino-3-methylbutyl)amino)-4-oxobutanoate dihydrochloride]	74.8	0.15	75	0.21	99.2	99.6	23687.3 ± 3865	19.0 ± 1.7
CC(C)CCC[C@@H](C)[C@H]1CC[C@H]2[C@@H]3CC=C4C[C@@H](OC(=O)CCC(=O)N(CCCCCCCC(C)(C)N)CCC(C)(C)N)CC[C@]4(C)[C@H]3CC[C@]12C [SA164, (3S,8S,9S,10R,13R,14S,17R)-10,13-dimethyl-17-((R)-6-methylheptan-2-yl)-2,3,4,7,8,9,10,11,12,13,14,15,16,17-tetradecahydro-1H-cyclopenta[a]phenanthren-3-yl 4-((3-amino-3-methylbutyl)(8-amino-8-methylnonyl)amino)-4-oxobutanoate dihydrochloride]	72.5	0.14	73	0.14	99.2	98.0	17129.2 ± 2374.1	16.2 ± 0.7
CC[C@H](CC[C@@H](C)[C@H]1CC[C@H]2[C@@H]3CC=C4C[C@@H](SSCCC(=O)N(CCCCCCCC(C)N)CCC(C)N)CC[C@]4(C)[C@H]3CC[C@]12C)C(C)C (stereo partly drawn) [SA178, N-(3-aminobutyl)-N-(8-aminononyl)-3-(((3S,8S,9S,10R,13R,14S,17R)-17-((2R,5R)-5-ethyl-6-methylheptan-2-yl)-10,13-dimethyl-2,3,4,7,8,9,10,11,12,13,14,15,16,17-tetradecahydro-1H-cyclopenta[a]phenanthren-3-yl)disulfaneyl)propanamide dihydrochloride]	83	0.26	75	0.20	100	98.8	10196.5 ± 602.4	9.8 ± 0.3
CC(C)CCC[C@@H](C)[C@H]1CC[C@H]2[C@@H]3CC=C4C[C@@H](OC(=O)CN(CCCCCCCCN)C(=O)CCCCN)CC[C@]4(C)[C@H]3CC[C@]12C [SA122, (3S,8S,9S,10R,13R,14S,17R)-10,13-Dimethyl-17-((R)-6-methylheptan-2-yl)-2,3,4,7,8,9,10,11,12,13,14,15,16,17-tetradecahydro-1H-cyclopenta[a]phenanthren-3-yl N-(8-aminooctyl)-N-(5-aminopentanoyl)glycinate dihydrochloride]	83.5	0.13	75	0.15	98.6	99.4	29605.6 ± 6326.9	14.8 ± 1.1
CC(C)CCC[C@@H](C)[C@H]1CC[C@H]2[C@@H]3CC=C4C[C@@H](OC(=O)CCC(=O)N(CCC(C)(C)N)CCC(C)(C)N)CC[C@]4(C)[C@H]3CC[C@]12C [SA169, (3S,8S,9S,10R,13R,14S,17R)-10,13-dimethyl-17-((R)-6-methylheptan-2-yl)-2,3,4,7,8,9,10,11,12,13,14,15,16,17-tetradecahydro-1H-cyclopenta[a]phenanthren-3-yl 4-(bis(3-amino-3-methylbutyl)amino)-4-oxobutanoate dihydrochloride]	73.0	0.14	77	0.20	99.2	99.4	28034.9 ± 4050.3	19.7 ± 1.6
CC[C@H](CC[C@@H](C)[C@H]1CC[C@H]2[C@@H]3CC=C4C[C@@H](OC(=O)CCC(=O)N(CCC(C)N)CCC(C)N)CC[C@]4(C)[C@H]3CC[C@]12C)C(C)C (stereo partly drawn) [SA168, (3S,8S,9S,10R,13R,14S,17R)-17-((2R,5R)-5-ethyl-6-methylheptan-2-yl)-10,13-dimethyl-2,3,4,7,8,9,10,11,12,13,14,15,16,17-tetradecahydro-1H-cyclopenta[a]phenanthren-3-yl 4-(bis(3-aminobutyl)amino)-4-oxobutanoate dihydrochloride]	76.1	0.15	79	0.16	99.3	99.3	35639.5 ± 6688.9	14.8 ± 0.7
CC[C@H](CC[C@@H](C)[C@H]1CC[C@H]2[C@@H]3CC=C4C[C@@H](SSCCC(=O)N(CCCCCCCC(C)(C)N)CCC(C)(C)N)CC[C@]4(C)[C@H]3CC[C@]12C)C(C)C [SA179, N-(3-amino-3-methylbutyl)-N-(8-amino-8-methylnonyl)-3-(((3S,8S,9S,10R,13R,14S,17R)-17-((2R,5R)-5-ethyl-6-methylheptan-2-yl)-10,13-dimethyl-2,3,4,7,8,9,10,11,12,13,14,15,16,17-tetradecahydro-1H-cyclopenta[a]phenanthren-3-yl)disulfaneyl)propanamide dihydrochloride]	73	0.15	73	0.17	99.8	99.0	12298.9 ± 928.6	7.0 ± 0.6
CC(C)CCC[C@@H](C)[C@H]1CC[C@H]2[C@@H]3CC=C4C[C@@H](OC(=O)C(=O)N(CCCN)CCCCNCCCN)CC[C@]4(C)[C@H]3CC[C@]12C [SA66, (3S,8S,9S,10R,13R,14S,17R)-10,13-Dimethyl-17-((R)-6-methylheptan-2-yl)-2,3,4,7,8,9,10,11,12,13,14,15,16,17-tetradecahydro-1H-cyclopenta[a]phenanthren-3-yl 2-((3-aminopropyl)(4-((3-aminopropyl)amino)butyl)amino)-2-oxoacetate trihydrochloride]	75.7	0.13	72	0.18	99.5	88.2	13951.3 ± 6740.3	2.4 ± 0.1
CC(C)CCC[C@@H](C)[C@H]1CC[C@H]2[C@@H]3CC=C4C[C@@H](OC(=O)N(CCCCNCC(C)CN)CC(C)CN)CC[C@]4(C)[C@H]3CC[C@]12C (stereo partly drawn) [SA75, (3S,8S,9S,10R,13R,14S,17R)-10,13-dimethyl-17-((R)-6-methylheptan-2-yl)-2,3,4,7,8,9,10,11,12,13,14,15,16,17-tetradecahydro-1H-cyclopenta[a]phenanthren-3-yl (3-amino-2-methylpropyl)(4-((3-amino-2-methylpropyl)amino)butyl)carbamate trihydrochloride]	86.9	0.11	74	0.16	100	98.8	37732.4 ± 6382.7	11.9 ± 0.6
